The target in experiment [1] is KRas(G12V) (Homo sapiens (Human), UniProt P01116, G12V). Put plainly: KRas(G12V) GDP HTRF (BODIPY-GDP exchange TR-FRET). The class given is biochemical.
For experiment [2], the target named is KRas (Homo sapiens (Human), UniProt P01116). Put plainly: KRas GDP HTRF (BODIPY-GDP exchange TR-FRET). The class given is biochemical. Summed up: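 Inhibition of SOS1-mediated exchange of BODIPY-GDP on KRAS G12D, started with 3 nM recombinant human SOS1 and 300 nM BODIPY-GDP and read after 60 min. TR-FRET excitation 337 nm, ratio 520/490 nm ×10,000. IC50 from 4-parameter Hill fit of normalized data.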
Sequence of KRas (P01116-2 other isoform, or with tags, fused parts or gaps): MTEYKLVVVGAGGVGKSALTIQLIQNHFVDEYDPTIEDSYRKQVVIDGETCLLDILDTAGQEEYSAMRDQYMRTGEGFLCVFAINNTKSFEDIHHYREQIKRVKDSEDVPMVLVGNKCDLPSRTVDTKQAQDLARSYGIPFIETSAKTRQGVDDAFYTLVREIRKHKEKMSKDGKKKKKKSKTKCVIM

Molecules are shown by their SMILES.

Sequence of KRas(G12V) (P01116-2 other isoform, or with tags, fused parts or gaps G12V): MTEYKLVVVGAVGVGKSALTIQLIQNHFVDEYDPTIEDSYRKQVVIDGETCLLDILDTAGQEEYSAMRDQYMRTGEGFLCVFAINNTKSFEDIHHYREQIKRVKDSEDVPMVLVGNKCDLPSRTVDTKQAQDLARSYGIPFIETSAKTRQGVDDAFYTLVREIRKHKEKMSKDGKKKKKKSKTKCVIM

In the case of `Cc1cc(N)nc(-c2c(Cl)c3c4c(nc(OC[C@@]56CCCN5C[C@H](F)C6)nc4c2F)N([C@H](C)c2cc(F)cnc2N)CCO3)c1C(F)(F)F` (atropisomer, axis not shown; (aS)) [Example 130a, 6-((R)-4-((R)-1-(2-amino-5-fluoropyridin-3-yl)ethyl)-8-chloro-10-fluoro-2-(((2R,7aS)-2-fluorotetrahydro-1H-pyrrolizin-7a(5H)-yl)methoxy)-5,6-dihydro-4H-[1,4]oxazepino[5,6,7-de]quinazolin-9-yl)-4-methyl-5-(trifluoromethyl)pyridin-2-amine], the half-inhibitory concentration (IC50) was determined as 0.06 nM in experiment [1] and 0.07 nM in experiment [2].
For `Cc1cc(N)nc(-c2c(Cl)c3c4c(nc(OC[C@@H]5CC[C@H]6CN(CC(F)(F)F)CCN56)nc4c2F)N([C@H](C)c2cccnc2N)CCO3)c1C(F)(F)F` (atropisomer, axis not shown; (aS)) [Example 129a, 6-((R)-4-((R)-1-(2-aminopyridin-3-yl)ethyl)-8-chloro-10-fluoro-2-(((6S,8aS)-2-(2,2,2-trifluoroethyl)octahydropyrrolo[1,2-a]pyrazin-6-yl)methoxy)-5,6-dihydro-4H-[1,4]oxazepino[5,6,7-de]quinazolin-9-yl)-4-methyl-5-(trifluoromethyl)pyridin-2-amine], the 50% inhibitory concentration (IC50) came out at 0.31 nM in experiment [1] and 0.232 nM in experiment [2].
As to `Cc1cc(N)nc(-c2cc3nc(OCC4(N(C)C)COC4)nc4c3c(c2Cl)OCCN4Cc2cccnc2N)c1C(F)(F)F` [Example 54, 6-(4-((2-aminopyridin-3-yl)methyl)-8-chloro-2-((3-(dimethylamino)oxetan-3-yl)methoxy)-5,6-dihydro-4H-[1,4]oxazepino[5,6,7-de]quinazolin-9-yl)-4-methyl-5-(trifluoromethyl)pyridin-2-amine], the half-maximal inhibitory concentration (IC50) came out at 41 nM in experiment [1] and 310 nM in experiment [2].
In the case of `Cc1cc(N)nc(-c2c(Cl)c3c4c(nc(OC(C)[C@@H]5CC(F)(F)CN5C)nc4c2F)N([C@H](C)c2cccnc2N)CCO3)c1C(F)(F)F` (stereo partly drawn) [Example 71, 6-((R)-4-((R)-1-(2-aminopyridin-3-yl)ethyl)-8-chloro-2-((S)-1-((S)-4,4-difluoro-1-methylpyrrolidin-2-yl)ethoxy)-10-fluoro-5,6-dihydro-4H-[1,4]oxazepino[5,6,7-de]quinazolin-9-yl)-4-methyl-5-(trifluoromethyl)pyridin-2-amine], the IC50 in experiment [1] turned out to be 0.53 nM; in experiment [2], 6.61 nM.
As for `CNc1cncc(CN2CCOc3c(Cl)c(-c4nc(N)cc(C)c4C(F)(F)F)cc4ncnc2c34)c1` [Example 6, 6-(8-chloro-4-((5-(methylamino)pyridin-3-yl)methyl)-5,6-dihydro-4H-[1,4]oxazepino[5,6,7-de]quinazolin-9-yl)-4-methyl-5-(trifluoromethyl)pyridin-2-amine], the half-inhibitory concentration (IC50) in experiment [1] is 1300 nM; in experiment [2], 6300 nM.
On the same counts, the results for `Cc1cc(N)nc(-c2cc3ncnc4c3c(c2Cl)OCCN4C2(c3cccnc3N)CC2)c1C(F)(F)F` [Example 11, 6-(4-(1-(2-aminopyridin-3-yl)cyclopropyl)-8-chloro-5,6-dihydro-4H-[1,4]oxazepino[5,6,7-de]quinazolin-9-yl)-4-methyl-5-(trifluoromethyl)pyridin-2-amine] are 1000 nM and 14000 nM.
`Cc1cc(N)nc(-c2cc3nc(OCC4(C)CS(=O)(=O)C4)nc4c3c(c2Cl)OCCN4Cc2cccnc2N)c1C(F)(F)F` [Example 55, 3-(((9-(6-amino-4-methyl-3-(trifluoromethyl)pyridin-2-yl)-4-((2-aminopyridin-3-yl)methyl)-8-chloro-5,6-dihydro-4H-[1,4]oxazepino[5,6,7-de]quinazolin-2-yl)oxy)methyl)-3-methylthietane 1,1-dioxide]: the IC50 in experiment [1] was 19 nM; in experiment [2] it was 130 nM.
On the same counts, the results for `Cc1cc(N)nc(-c2c(Cl)c3c4c(nc(OC[C@H](C)N5CCOCC5)nc4c2F)N([C@H](C)c2cccnc2N)CCO3)c1C(F)(F)F` (atropisomer, axis not shown) [Example 95a, 6-((R)-4-((R)-1-(2-aminopyridin-3-yl)ethyl)-8-chloro-10-fluoro-2-((S)-2-morpholinopropoxy)-5,6-dihydro-4H-[1,4]oxazepino[5,6,7-de]quinazolin-9-yl)-4-methyl-5-(trifluoromethyl)pyridin-2-amine] are 0.09 nM and 0.83 nM.
On the same counts, the results for `Cc1cc(N)nc(-c2c(Cl)c3c4c(nc(OC[C@@]56CCN5CC(F)(F)C6)nc4c2F)N([C@H](C)c2nccnc2N)CCO3)c1C(F)(F)F` (single isomer, unassigned) [Example 162c] are 370 nM and 830 nM.
On the same counts, the results for `Cc1cc(N)nc(-c2c(Cl)c3c4c(nc(OCC56C[C@@H](F)CN5C[C@H](F)C6)nc4c2F)N([C@H](C)c2cccnc2N)CCO3)c1C(F)(F)F` (atropisomer, axis not shown) [Example 98a, 6-((R)-4-((R)-1-(2-aminopyridin-3-yl)ethyl)-8-chloro-2-(((2R,6R)-2,6-difluorotetrahydro-1H-pyrrolizin-7a(5H)-yl)methoxy)-10-fluoro-5,6-dihydro-4H-[1,4]oxazepino[5,6,7-de]quinazolin-9-yl)-4-methyl-5-(trifluoromethyl)pyridin-2-amine] are 0.11 nM and 0.557 nM.
Regarding `Cc1cc(N)nc(-c2c(Cl)c3c4c(nc(OC[C@@]56CCCN5CCOC6)nc4c2F)N([C@H](C)c2cccnc2N)CCO3)c1C(F)(F)F` (atropisomer, axis not shown) [Example 128b, 6-((R)-4-((R)-1-(2-aminopyridin-3-yl)ethyl)-8-chloro-10-fluoro-2-(((S)-tetrahydro-1H-pyrrolo[2,1-c][1,4]oxazin-8a(6H)-yl)methoxy)-5,6-dihydro-4H-[1,4]oxazepino[5,6,7-de]quinazolin-9-yl)-4-methyl-5-(trifluoromethyl)pyridin-2-amine], the values for the IC50 in experiment [1] and in experiment [2] were 0.19 nM and 0.469 nM, respectively.
On the same counts, the results for `COCCN1CCC(Oc2nc3c4c(c(Cl)c(-c5nc(N)cc(C)c5C(F)(F)F)c(F)c4n2)OCCN3[C@H](C)c2cccnc2N)CC1` (atropisomer, axis not shown) [Example 126, 6-((R)-4-((R)-1-(2-aminopyridin-3-yl)ethyl)-8-chloro-10-fluoro-2-((1-(2-methoxyethyl)piperidin-4-yl)oxy)-5,6-dihydro-4H-[1,4]oxazepino[5,6,7-de]quinazolin-9-yl)-4-methyl-5-(trifluoromethyl)pyridin-2-amine] are 0.34 nM and 2.87 nM.
`Cc1cc(N)nc(-c2c(Cl)c3c4c(nc(OC[C@]56CCCN5CC(F)(F)C6)nc4c2F)N([C@H](C)c2nccnc2N)CCO3)c1C(F)(F)F` (atropisomer, axis not shown) [Example 166b, 3-((R)-1-((S)-9-(6-amino-4-methyl-3-(trifluoromethyl)pyridin-2-yl)-8-chloro-2-(((R)-2,2-difluorotetrahydro-1H-pyrrolizin-7a(5H)-yl)methoxy)-10-fluoro-5,6-dihydro-4H-[1,4]oxazepino[5,6,7-de]quinazolin-4-yl)ethyl)pyrazin-2-amine]: the IC50 in experiment [1] turned out to be 640 nM; in experiment [2] it was 1730 nM.
With `Cc1cc(N)nc(-c2c(Cl)c3c4c(nc(OCC56C[C@H](F)CN5C[C@H](F)C6)nc4c2F)N([C@H](C)c2cccnc2N)CCO3)c1C(F)(F)F` (stereo partly drawn) [Example 98b, 6-((9R)-4-((R)-1-(2-aminopyridin-3-yl)ethyl)-8-chloro-2-(((2R,6S)-2,6-difluorotetrahydro-1H-pyrrolizin-7a(5H)-yl)methoxy)-10-fluoro-5,6-dihydro-4H-[1,4]oxazepino[5,6,7-de]quinazolin-9-yl)-4-methyl-5-(trifluoromethyl)pyridin-2-amine], the results for the IC50 in experiment [1] and in experiment [2] were 0.1 nM and 0.125 nM, respectively.
On the same counts, the results for `Cc1cc(N)nc(-c2cc3ncnc4c3c(c2Cl)OCCN4C(C)(C)c2cccnc2N)c1C(F)(F)F` [Example 27, 6-(4-(2-(2-aminopyridin-3-yl)propan-2-yl)-8-chloro-5,6-dihydro-4H-[1,4]oxazepino[5,6,7-de]quinazolin-9-yl)-4-methyl-5-(trifluoromethyl)pyridin-2-amine] are 580 nM and 1400 nM.
As to `Cc1cc(N)nc(-c2cc3ncnc4c3c(c2Cl)OCCN4C2CCc3ccncc32)c1C(F)(F)F` (stereo not drawn) [Example 21, 6-(8-chloro-4-(6,7-dihydro-5H-cyclopenta[c]pyridin-7-yl)-5,6-dihydro-4H-[1,4]oxazepino[5,6,7-de]quinazolin-9-yl)-4-methyl-5-(trifluoromethyl)pyridin-2-amine], the 50% inhibitory concentration (IC50) in experiment [1] was found to be 1600 nM; in experiment [2] it was 3400 nM.
For `Cc1cc(N)nc(-c2c(Cl)c3c4c(ncnc4c2F)N([C@H](C)c2cccnc2N)CCO3)c1C(F)(F)F` (atropisomer, axis not shown) [Example 53a, 6-((R)-4-((R)-1-(2-aminopyridin-3-yl)ethyl)-8-chloro-10-fluoro-5,6-dihydro-4H-[1,4]oxazepino[5,6,7-de]quinazolin-9-yl)-4-methyl-5-(trifluoromethyl)pyridin-2-amine], the IC50 in experiment [1] worked out at 0.37 nM; in experiment [2], 1.2 nM.
On to `CNc1cnc(N)c([C@@H](C)N2CCOc3c(Cl)c(-c4nc(N)cc(C)c4C(F)(F)F)cc4ncnc2c34)c1` [Example 58, (R)-3-(1-(9-(6-amino-4-methyl-3-(trifluoromethyl)pyridin-2-yl)-8-chloro-5,6-dihydro-4H-[1,4]oxazepino[5,6,7-de]quinazolin-4-yl)ethyl)-N5-methylpyridine-2,5-diamine], for which the IC50 in experiment [1] was determined as 18 nM; in experiment [2], 34 nM.

The values above are taken from patent US20240383915A1, “OXAZEPINE COMPOUNDS AND USES THEREOF IN THE TREATMENT OF CANCER” (Genentech, Inc., priority 2021, published 2024).
